We go through three compounds from ChEMBL document CHEMBL3393013, “Structural Insights for the Optimization of Dihydropyrimidin-2(1H)-one Based mPGES-1 Inhibitors” (ACS Med Chem Lett, 2015).

Structures are written as SMILES.

As a reminder, the IC50 is the point on the concentration scale where inhibition reaches its midpoint.

This experiment deals with T1, Prostaglandin E synthase (Homo sapiens, UniProt O14684).
T1 sequence (O14684 whole entry): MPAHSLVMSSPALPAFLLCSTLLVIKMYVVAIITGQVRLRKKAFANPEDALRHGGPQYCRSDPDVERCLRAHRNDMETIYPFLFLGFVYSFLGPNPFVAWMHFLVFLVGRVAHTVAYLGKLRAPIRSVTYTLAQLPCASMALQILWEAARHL
Kind of experiment: Inhibition of mPGES-1 in interleukin-1beta-stimulated human A549 cells microsomal membranes assessed as reduction in PGE2 formation incubated for 15 mins in presence of PGH2 and glutathione by RP-HPLC method. Type of experiment: cell-based.

In the case of `CC1=C(C(=O)c2cc(Br)ccc2O)C(c2ccc(-c3cccc(C(F)(F)F)c3)o2)NC(=O)N1` (stereo not drawn), the IC50 came to 5.6 µM. With `CC1=C(C(=O)OCc2ccccc2)C(c2ccc(-c3cccc(C(F)(F)F)c3)o2)NC(=O)N1` (stereo not drawn), the IC50 turned out to be 1.4 µM. As to `CC1=C(C(=O)OCc2ccccc2)C(c2ccc(-c3cccc(C(F)(F)F)c3)o2)NC(=O)N1CCC(=O)O` (stereo not drawn), the IC50 was found to be 0.41 µM.
